From the Kinase Knowledgebase extract (Sharma et al. 2016)

biological target: CDK2 (human) (UniProt P24941); assay: Enzyme Assay

Compound	Ki
O=c1[nH][nH]c2cc(OC3COCC(Nc4cc(C5CC5)[nH]n4)C3)ccc12 (configuration not stated)	< 1000 nM
O=c1[nH][nH]c2cc(C(F)(F)F)c(-c3cc(-c4ccncc4)nc(Nc4cc(C5CC5)[nH]n4)n3)cc12	< 1000 nM
Cc1nc(-c2ccc3[nH][nH]c(=O)c3c2C(F)(F)F)nc(Nc2n[nH]c(C(C)C)n2)c1C	< 1000 nM
O=c1[nH][nH]c2cc(C3CC3C3COCC(Nc4nccnn4)C3)ccc12 (configuration not stated)	< 1000 nM
Cc1cnc(NC2CCCC2COc2ccc3c(=O)[nH][nH]c3c2)s1 (configuration not stated)	< 1000 nM
Cc1cnc(NCCCCc2ccc3c(=O)[nH][nH]c3c2)s1	< 1000 nM
O=c1[nH][nH]c2ccc(C3COCC(Nc4nccnn4)C3)cc12 (configuration not stated)	< 1000 nM
O=C1Cc2nc(-c3ccc4[nH][nH]c(=O)c4c3C(F)(F)F)nc(Nc3n[nH]c4ccccc34)c2CN1	< 1000 nM
Cc1cnc(NCCC(Cc2ccccc2)Oc2ccc3c(=O)[nH][nH]c3c2)s1 (configuration not stated)	< 1000 nM
Cc1cc(Nc2cc(-c3cc4c(=O)[nH][nH]c4cc3C(F)(F)F)nc(N3CCNCC3)c2)n[nH]1	< 1000 nM
COCCNc1cc(Nc2cc(C)[nH]n2)nc(OCc2ccc3c(=O)[nH][nH]c3c2)n1	< 1000 nM
Cc1cc(Nc2nc(COc3ccc4c(=O)[nH][nH]c4c3)nc3c2CNCC3)n[nH]1	< 1000 nM
O=C(CCNc1nccnn1)Cc1ccc2c(=O)[nH][nH]c2c1	< 1000 nM
O=c1[nH][nH]c2cc(Sc3nc(Nc4cc(C5CC5)[nH]n4)cc(N4CCOCC4)n3)ccc12	< 1000 nM
O=c1[nH][nH]c2ccc(-c3nc4c(c(Nc5n[nH]c6ccc(F)cc56)n3)CCC4)c(C(F)(F)F)c12	< 1000 nM
O=c1[nH][nH]c2ccc(-c3nc(Nc4n[nH]c5cc(=O)n(-c6ccccc6)nc45)c4ccccc4n3)c(C(F)(F)F)c12	< 1000 nM
O=c1[nH][nH]c2cc(NC3COCC(Nc4cc(C5CC5)[nH]n4)C3)ccc12 (configuration not stated)	< 1000 nM
O=c1[nH][nH]c2cc(CCCCNc3cc(C4CC4)[nH]n3)ccc12	< 1000 nM
Cc1cnc(NC2CCCC(Nc3ccc4c(=O)[nH][nH]c4c3)C2)s1 (configuration not stated)	< 1000 nM
Cn1cnc(NC(=O)CC(=O)Oc2ccc3c(=O)[nH][nH]c3c2)c1	< 1000 nM
Cn1cnc(NC(=O)CC(=O)Nc2ccc3c(=O)[nH][nH]c3c2)c1	< 1000 nM
Cc1cnc(NOCCOc2ccc3c(=O)[nH][nH]c3c2)s1	< 1000 nM

Compound	Ki
O=c1[nH][nH]c2ccc(C3CCCC(Nc4nccnn4)C3)cc12 (configuration not stated)	< 1000 nM
Cc1cnc(NC(=O)CCOc2ccc3c(=O)[nH][nH]c3c2)s1	< 1000 nM
Cn1cnc(NC(=O)CC(=O)Cc2ccc3c(=O)[nH][nH]c3c2)c1	< 1000 nM
O=c1[nH][nH]c2ccc(-c3nnc(C4CCNCC4)c(Nc4n[nH]c5ccccc45)n3)c(C(F)(F)F)c12	< 1000 nM
O=c1[nH][nH]c2cc(SCCCNc3nccnn3)ccc12	< 1000 nM
O=c1[nH][nH]c2cc(NCCONc3ccccn3)ccc12	< 1000 nM
O=c1[nH][nH]c2ccc(-c3nc(Nc4n[nH]c5c4CCCC5)c4ccccc4n3)c(C(F)(F)F)c12	< 1000 nM
CCc1cccc2c(Nc3cc(C)[nH]n3)nc(-c3ccc4[nH][nH]c(=O)c4c3OC(F)(F)F)nc12	< 1000 nM
Cc1cc(Nc2cc(COCCN(C)C)nc(Sc3ccc4c(=O)[nH][nH]c4c3)n2)n[nH]1	< 1000 nM
Cc1cnc(NC2CCCC(SCc3ccc4c(=O)[nH][nH]c4c3)C2)s1 (configuration not stated)	< 1000 nM
Cc1cnc(NCCC(=O)Oc2ccc3c(=O)[nH][nH]c3c2)s1	< 1000 nM
O=c1[nH][nH]c2ccc(-c3nc(Nc4n[nH]c5c(F)cc(F)cc45)c4ccncc4n3)c(Cl)c12	< 1000 nM
Cc1cnc(NC(=O)CCNc2ccc3c(=O)[nH][nH]c3c2)s1	< 1000 nM
O=c1[nH][nH]c2ccc(-c3nc4c(c(Nc5n[nH]c(C6CC6)n5)n3)CCCCC4)c(C(F)(F)F)c12	< 1000 nM
O=c1[nH][nH]c2cc(Cl)c(-c3cc(Nc4n[nH]c5ccccc45)c4c(n3)CCCC4)cc12	< 1000 nM
Cc1cc(Nc2cc(CN(C)C)nc(Sc3ccc4c(=O)[nH][nH]c4c3)n2)n[nH]1	< 1000 nM
O=c1[nH][nH]c2cc(SC3CCC(Nc4nccnn4)C3)ccc12 (configuration not stated)	< 1000 nM
O=c1[nH][nH]c2cc(NCCCNc3nccnn3)ccc12	< 1000 nM
Cc1cnc(NCCCOc2ccc3c(=O)[nH][nH]c3c2)s1	< 1000 nM
Cc1cnc(NC2CCCC2CSc2ccc3c(=O)[nH][nH]c3c2)s1 (configuration not stated)	< 1000 nM
O=c1[nH][nH]c2cc(CCC3CCCC3Nc3cc(C4CC4)[nH]n3)ccc12 (configuration not stated)	< 1000 nM
O=c1[nH][nH]c2ccc(C3CCCC(Nc4cc(C5CC5)[nH]n4)C3)cc12 (configuration not stated)	< 1000 nM

Compound	Ki
CCc1cc(Nc2cc(C)[nH]n2)nc(C2(c3ccc4c(=O)[nH][nH]c4c3)CCC2)n1	< 1000 nM
Cc1cc(Nc2nc(COc3ccc4[nH][nH]c(=O)c4c3)nc3c2CCCC3)n[nH]1	< 1000 nM
Cc1cc(Nc2cc(C3CC3)[nH]n2)nc(Sc2ccc3c(=O)[nH][nH]c3c2)n1	< 1000 nM
Cc1cnc(NC2CCC(Cc3ccc4c(=O)[nH][nH]c4c3)C2)s1 (configuration not stated)	< 1000 nM
O=C(CCSc1ccc2c(=O)[nH][nH]c2c1)Nc1ccccn1	< 1000 nM
O=c1[nH][nH]c2cc(OCC3CCCC3Nc3ccccn3)ccc12 (configuration not stated)	< 1000 nM
O=c1[nH][nH]c2cc(CCCONc3nccnn3)ccc12	< 1000 nM
O=c1[nH][nH]c2cc(OCCCNc3nccnn3)ccc12	< 1000 nM
O=c1[nH][nH]c2cc(CCCC(Nc3ccccn3)c3ccccc3)ccc12 (configuration not stated)	< 1000 nM
Cc1cc(Nc2nc(-c3ccc4[nH][nH]c(=O)c4c3C(F)(F)F)nc3c2CCNCC3)n[nH]1	< 1000 nM
O=c1[nH][nH]c2cc(OCCCNc3cc(C4CC4)[nH]n3)ccc12	< 1000 nM
O=c1[nH][nH]c2ccc(-c3nc(Nc4n[nH]c5c(F)cccc45)c4ccncc4n3)c(Cl)c12	< 1000 nM
O=C(CC(=O)Oc1ccc2c(=O)[nH][nH]c2c1)Nc1cc(C2CC2)[nH]n1	< 1000 nM
Cc1cc(Nc2cc(NCCN(C)C)nc(Sc3ccc4c(=O)[nH][nH]c4c3)n2)n[nH]1	< 1000 nM
CNC(=O)c1cc(Nc2cc(C)[nH]n2)nc(Sc2ccc3c(=O)[nH][nH]c3c2)n1	< 1000 nM
O=c1[nH][nH]c2cc(NCC3CCCC3Nc3cc(C4CC4)[nH]n3)ccc12 (configuration not stated)	< 1000 nM
CCc1cc(Nc2cc(C)[nH]n2)nc(COc2ccc3[nH][nH]c(=O)c3c2)n1	< 1000 nM
Cn1cnc(NC2COCC(Oc3ccc4c(=O)[nH][nH]c4c3)C2)c1 (configuration not stated)	< 1000 nM
CNc1cnc(-c2ccc3[nH][nH]c(=O)c3c2C(F)(F)F)nc1Nc1n[nH]c2ccccc12	< 1000 nM
O=c1[nH][nH]c2cc(SCCCNc3ccccn3)ccc12	< 1000 nM
Cn1cnc(NC(CCSc2ccc3c(=O)[nH][nH]c3c2)c2ccccc2)c1 (configuration not stated)	< 1000 nM

Now from value to compound:

Ki	Compound
< 1000 nM	Cc1cc(Nc2cc(-c3ccco3)[nH]n2)nc(COc2ccc3c(=O)[nH][nH]c3c2)n1
< 1000 nM	O=c1[nH][nH]c2ccc(-c3nc(Nc4n[nH]c5ccccc45)cc(-c4ccccc4)n3)c(C(F)(F)F)c12
< 1000 nM	O=c1[nH][nH]c2cc(Nc3nc(Nc4cc(-c5ccco5)[nH]n4)c4ccccc4n3)ccc12
< 1000 nM	O=c1[nH][nH]c2cc(Nc3nc(Nc4cc(C5CC5)[nH]n4)c4ccccc4n3)ccc12
< 1000 nM	CC(C)c1cc2[nH][nH]c(=O)c2cc1-c1nc(Nc2n[nH]c3ccccc23)c2ccccc2n1
< 1000 nM	O=c1[nH][nH]c2cc(Nc3cc4ccccc4c(Nc4cc(C5CC5)[nH]n4)n3)ccc12
< 1000 nM	O=c1[nH][nH]c2cc(Nc3nc(Nc4cc(C5CCCC5)[nH]n4)c4ccccc4n3)ccc12
< 1000 nM	Cc1cc(Nc2nc(Nc3ccc4c(=O)[nH][nH]c4c3)nc3c2CCCC3)n[nH]1
< 1000 nM	Cc1cc(Nc2cc(-c3cccc([N+](=O)[O-])c3)nc(Nc3ccc4c(=O)[nH][nH]c4c3)n2)n[nH]1
< 1000 nM	COc1cccc2c(Nc3cc(C4CC4)[nH]n3)nc(Sc3ccc4c(=O)[nH][nH]c4c3)nc12
< 1000 nM	O=c1[nH][nH]c2ccc(-c3nc(Nc4n[nH]c5ccccc45)cc(-c4ccccn4)n3)c(C(F)(F)F)c12
< 1000 nM	Cc1cc(Nc2nc(Sc3ccc4c(=O)[nH][nH]c4c3)nc3ccccc23)n[nH]1
< 1000 nM	Cc1cc(Nc2nc(Nc3ccc4c(=O)[nH][nH]c4c3)nc3c2CCNC3)n[nH]1
< 1000 nM	O=c1[nH][nH]c2cc(Cl)c(-c3cc(C4CCCCC4)nc(Nc4n[nH]c5ccccc45)n3)cc12
< 1000 nM	O=c1[nH][nH]c2cc(Nc3nc(Nc4cc(C5CC5)[nH]n4)c4cc(-c5ccccc5Cl)ccc4n3)ccc12
< 1000 nM	O=c1[nH][nH]c2cc(Nc3cc4ccccc4c(Nc4n[nH]c5ccccc45)n3)ccc12

Ki	Compound
< 1000 nM	O=c1[nH][nH]c2cc(Nc3nc(Nc4cc(C5CC5)[nH]n4)nc(-c4ccccc4)n3)ccc12
< 1000 nM	Cc1cc(Nc2cc(C)[nH]n2)nc(Nc2ccc3c(=O)[nH][nH]c3c2)n1
< 1000 nM	O=c1[nH][nH]c2ccc(-c3nc(Nc4cc(C5CCCC5)[nH]n4)c4ccccc4n3)cc12
< 1000 nM	Cc1cc(Nc2nc(Sc3ccc4c(=O)[nH][nH]c4c3)nc3cc(OCCCN(C)C)ccc23)n[nH]1
< 1000 nM	O=c1[nH][nH]c2cc(Cc3cc4ccccc4c(Nc4cc(C5CC5)[nH]n4)n3)ccc12
< 1000 nM	C#Cc1c(-c2nc(Nc3n[nH]c4ccc(F)cc34)c3ccccc3n2)ccc2[nH][nH]c(=O)c12
< 1000 nM	Cc1cc(Nc2ccnc(Oc3ccc4c(=O)[nH][nH]c4c3)c2)n[nH]1
< 1000 nM	O=c1[nH][nH]c2cc(Nc3cccc(Nc4n[nH]c5ccccc45)n3)ccc12
< 1000 nM	O=c1[nH][nH]c2cc(COCc3cc4ccccc4c(Nc4cc(C5CC5)[nH]n4)n3)ccc12
< 1000 nM	Cc1cnc(Nc2cccc(Nc3ccc4c(=O)[nH][nH]c4c3)c2)s1
< 1000 nM	Cc1cc(Nc2cccc(NCc3ccc4c(=O)[nH][nH]c4c3)n2)n[nH]1
< 1000 nM	O=c1[nH][nH]c2ccc(-c3nc(Nc4cc(-c5cccs5)[nH]n4)c4ccccc4n3)c(C(F)(F)F)c12
< 1000 nM	CC(C)c1cc(Nc2nc(Nc3ccc4c(=O)[nH][nH]c4c3)nc3ccc(-c4ccccc4)cc23)n[nH]1
< 1000 nM	O=c1[nH][nH]c2cc(Nc3ccc([N+](=O)[O-])c(Nc4ncn[nH]4)n3)ccc12
< 1000 nM	O=c1[nH][nH]c2cc(C(F)(F)F)c(-c3cc(-c4ccccc4)cc(Nc4n[nH]c5ccccc45)n3)cc12
< 1000 nM	CN(C)CCNC(=O)c1cc(Nc2n[nH]c3ccccc23)nc(Sc2ccc3c(=O)[nH][nH]c3c2)n1
